Reference: ChEMBL document CHEMBL5528067, “From Synergy to Monotherapy: Discovery of Novel 2,4,6-Trisubstituted Triazine Hydrazone Derivatives with Potent Antifungal Potency In Vitro and In Vivo” (J Med Chem, 2024)
≈ marks a conversion by molar mass, not a printed value.

What was measured:
Type in all cases: functional
Candida albicans [1] = assay: Antifungal activity against FCZ-resistant Candida albicans 10231 assessed as growth inhibition measured after 48 hrs incubation by CLSI based micro-dilution broth method
[Candida] auris [2] = Antifungal activity against FCZ-resistant Candida auris 919 assessed as growth inhibition measured after 48 hrs incubation by CLSI based micro-dilution broth method; settings: Candidozyma auris
Candida tropicalis = assay: Antifungal activity against Candida tropicalis 8915 assessed as growth inhibition measured after 48 hrs incubation by CLSI based micro-dilution broth method
Pichia kudriavzevii = assay: Antifungal activity against Candida krusei 4996 assessed as growth inhibition measured after 48 hrs incubation by CLSI based micro-dilution broth method
Candida albicans [3] = assay: Antifungal activity against FCZ-resistant Candida albicans SC5314 assessed as growth inhibition measured after 48 hrs incubation by CLSI based micro-dilution broth method
Cryptococcus neoformans = assay: Antifungal activity against Cryptococcus neoformans 32609 assessed as growth inhibition measured after 48 hrs incubation by CLSI based micro-dilution broth method
Nakaseomyces glabratus = assay: Antifungal activity against Candida glabrata 537 assessed as growth inhibition measured after 48 hrs incubation by CLSI based micro-dilution broth method
[Candida] auris [4] = Antifungal activity against FCZ-resistant Candida auris 918 assessed as growth inhibition measured after 48 hrs incubation by CLSI based micro-dilution broth method; settings: Candidozyma auris
Candida parapsilosis = assay: Antifungal activity against Candida parapsilosis 22019 assessed as growth inhibition measured after 48 hrs incubation by CLSI based micro-dilution broth method; settings: Lodderomyces parapsilosis
Candida albicans [5] = assay: Antifungal activity against FCZ-resistant Candida albicans strain 901 assessed as growth inhibition in presence of fluconazole measured after 48 hrs incubation by CLSI based micro-dilution broth method
Candida albicans [6] = assay: Synergistic antifungal activity against FCZ-resistant Candida albicans strain 901 assessed as fractional inhibitory concentration index measured after 48 hrs in presence of FCZ by CLSI based micro-dilution broth method
Candida albicans [7] = assay: Synergistic antifungal activity against FCZ-resistant Candida albicans strain 904 assessed as fractional inhibitory concentration index measured after 48 hrs in presence of FCZ by CLSI based micro-dilution broth method
Candida albicans [8] = assay: Antifungal activity against FCZ-resistant Candida albicans strain 904 assessed as growth inhibition measured after 48 hrs incubation by CLSI based micro-dilution broth method
Candida albicans [9] = assay: Antifungal activity against FCZ-resistant Candida albicans strain 904 assessed as growth inhibition in presence of fluconazole measured after 48 hrs incubation by CLSI based micro-dilution broth method
Candida albicans [10] = assay: Antifungal activity against FCZ-resistant Candida albicans strain 901 assessed as growth inhibition measured after 48 hrs incubation by CLSI based micro-dilution broth method

For O=[N+]([O-])c1ccc(O)c(/C=N/Nc2nc(NCc3ccc(F)cc3)nc(N3CCOCC3)n2)c1, the MIC80 (Candida albicans [1]) was 16 µg/mL (≈ 34.2 µM), the MIC80 ([Candida] auris [2]) was greater than 64 µg/mL and the MIC80 (Candida tropicalis) was 4 µg/mL (≈ 8.54 µM). For the same compound, the MIC80 (Pichia kudriavzevii) was 2 µg/mL (≈ 4.27 µM), the MIC80 (Candida albicans [3]) was 4 µg/mL (≈ 8.54 µM) and the MIC80 (Cryptococcus neoformans) was 4 µg/mL (≈ 8.54 µM). It also gave an MIC80 (Nakaseomyces glabratus) of 1 µg/mL (≈ 2.13 µM), an MIC80 ([Candida] auris [4]) greater than 64 µg/mL and an MIC80 (Candida parapsilosis) of 32 µg/mL (≈ 68.3 µM).

For Fc1ccc(/C=N/Nc2nc(NCc3ccc(F)cc3)nc(NCc3ccc(F)cc3)n2)cc1, the MIC80 (Candida albicans [5]) was greater than 64 µg/mL, the “fractional inhibitory concentration index (FICI)” value (Candida albicans [6]) was 1.13 and the “fractional inhibitory concentration index (FICI)” value (Candida albicans [7]) was 1.13. The MIC80 (Candida albicans [8]) was greater than 64 µg/mL, the MIC80 (Candida albicans [9]) was greater than 64 µg/mL and the MIC80 (Candida albicans [10]) was greater than 64 µg/mL.

With Fc1ccc(CNc2nc(NCc3ccc(F)cc3)nc(N/N=C/c3ccc(Br)cc3)n2)cc1 the MIC80 (Candida albicans [5]) was greater than 64 µg/mL, the “fractional inhibitory concentration index (FICI)” value (Candida albicans [6]) was 1.13 and the “fractional inhibitory concentration index (FICI)” value (Candida albicans [7]) was 1.13. For the same compound, the MIC80 (Candida albicans [8]) was greater than 64 µg/mL, the MIC80 (Candida albicans [9]) was greater than 64 µg/mL and the MIC80 (Candida albicans [10]) was greater than 64 µg/mL.

For Cc1ccc(/C=N/Nc2nc(NCc3ccc(F)cc3)nc(NCc3ccc(F)cc3)n2)cc1, the MIC80 (Candida albicans [5]) was greater than 64 µg/mL, the “fractional inhibitory concentration index (FICI)” value (Candida albicans [6]) was 1.13 and the “fractional inhibitory concentration index (FICI)” value (Candida albicans [7]) was 1.13. For the same compound, the MIC80 (Candida albicans [8]) was greater than 64 µg/mL, the MIC80 (Candida albicans [9]) was greater than 64 µg/mL and the MIC80 (Candida albicans [10]) was greater than 64 µg/mL.

With Oc1ccc(/C=N/Nc2nc(NCc3ccc(F)cc3)nc(NCc3ccc(F)cc3)n2)cc1 the MIC80 (Candida albicans [5]) was 16 µg/mL, the “fractional inhibitory concentration index (FICI)” value (Candida albicans [6]) was 0.38 and the “fractional inhibitory concentration index (FICI)” value (Candida albicans [7]) was 0.38. It also gave an MIC80 (Candida albicans [8]) greater than 64 µg/mL, an MIC80 (Candida albicans [9]) of 16 µg/mL and an MIC80 (Candida albicans [10]) greater than 64 µg/mL.

Fc1ccc(CNc2nc(NCc3ccc(F)cc3)nc(N/N=C/c3cccc(F)c3)n2)cc1 was tested, and the MIC80 (Candida albicans [5]) was greater than 64 µg/mL, the “fractional inhibitory concentration index (FICI)” value (Candida albicans [6]) was 1.13 and the “fractional inhibitory concentration index (FICI)” value (Candida albicans [7]) was 1.13. It also gave an MIC80 (Candida albicans [8]) greater than 64 µg/mL, an MIC80 (Candida albicans [9]) greater than 64 µg/mL and an MIC80 (Candida albicans [10]) greater than 64 µg/mL.

For O=[N+]([O-])c1c(O)cccc1/C=N/Nc1nc(NCc2ccc(F)cc2)nc(NCc2ccc(F)cc2)n1, the MIC80 (Candida albicans [5]) was greater than 64 µg/mL, the “fractional inhibitory concentration index (FICI)” value (Candida albicans [6]) was 1.13 and the “fractional inhibitory concentration index (FICI)” value (Candida albicans [7]) was 1.13. For the same compound, the MIC80 (Candida albicans [8]) was greater than 64 µg/mL, the MIC80 (Candida albicans [9]) was greater than 64 µg/mL and the MIC80 (Candida albicans [10]) was greater than 64 µg/mL.

In the case of O=[N+]([O-])c1ccc(O)cc1/C=N/Nc1nc(NCc2ccc(F)cc2)nc(NCc2ccc(F)cc2)n1, the MIC80 (Candida albicans [5]) was 8 µg/mL, the “fractional inhibitory concentration index (FICI)” value (Candida albicans [6]) was 0.25 and the “fractional inhibitory concentration index (FICI)” value (Candida albicans [7]) was 0.25. The MIC80 (Candida albicans [8]) was greater than 64 µg/mL, the MIC80 (Candida albicans [9]) was 8 µg/mL and the MIC80 (Candida albicans [10]) was greater than 64 µg/mL.

With Oc1cccc(/C=N/Nc2nc(NCc3ccc(F)cc3)nc(NCc3ccc(F)cc3)n2)c1 the MIC80 (Candida albicans [5]) was 8 µg/mL, the “fractional inhibitory concentration index (FICI)” value (Candida albicans [6]) was 0.25 and the “fractional inhibitory concentration index (FICI)” value (Candida albicans [7]) was 0.25. It also gave an MIC80 (Candida albicans [8]) greater than 64 µg/mL, an MIC80 (Candida albicans [9]) of 8 µg/mL and an MIC80 (Candida albicans [10]) greater than 64 µg/mL.

In the case of N#Cc1ccc(/C=N/Nc2nc(NCc3ccc(F)cc3)nc(NCc3ccc(F)cc3)n2)cc1, the MIC80 (Candida albicans [5]) was greater than 64 µg/mL, the “fractional inhibitory concentration index (FICI)” value (Candida albicans [6]) was 1.13 and the “fractional inhibitory concentration index (FICI)” value (Candida albicans [7]) was 1.13. For the same compound, the MIC80 (Candida albicans [8]) was greater than 64 µg/mL, the MIC80 (Candida albicans [9]) was greater than 64 µg/mL and the MIC80 (Candida albicans [10]) was greater than 64 µg/mL.

Work on O=[N+]([O-])c1ccc(O)c(/C=N/Nc2nc(NCc3ccc(F)cc3)nc(NCc3ccco3)n2)c1 yielded an MIC80 (Candida albicans [1]) of 8 µg/mL (≈ 16.7 µM), an MIC80 ([Candida] auris [2]) of 4 µg/mL (≈ 8.36 µM) and an MIC80 (Candida tropicalis) of 2 µg/mL (≈ 4.18 µM). For the same compound, the MIC80 (Pichia kudriavzevii) was 1 µg/mL (≈ 2.09 µM), the MIC80 (Candida albicans [3]) was 2 µg/mL (≈ 4.18 µM) and the MIC80 (Cryptococcus neoformans) was 2 µg/mL (≈ 4.18 µM). It also gave an MIC80 (Nakaseomyces glabratus) of 1 µg/mL (≈ 2.09 µM), an MIC80 ([Candida] auris [4]) of 2 µg/mL (≈ 4.18 µM) and an MIC80 (Candida parapsilosis) of 2 µg/mL (≈ 4.18 µM).

For Fc1ccc(CNc2nc(NCc3ccc(F)cc3)nc(N/N=C/c3ccc(C(F)(F)F)cc3)n2)cc1, the MIC80 (Candida albicans [5]) was greater than 64 µg/mL, the “fractional inhibitory concentration index (FICI)” value (Candida albicans [6]) was 1.13 and the “fractional inhibitory concentration index (FICI)” value (Candida albicans [7]) was 1.13. The MIC80 (Candida albicans [8]) was greater than 64 µg/mL, the MIC80 (Candida albicans [9]) was greater than 64 µg/mL and the MIC80 (Candida albicans [10]) was greater than 64 µg/mL.

For Fc1ccc(CNc2nc(NCc3ccc(F)cc3)nc(N/N=C/c3ccccc3F)n2)cc1, the MIC80 (Candida albicans [5]) was greater than 64 µg/mL, the “fractional inhibitory concentration index (FICI)” value (Candida albicans [6]) was 1.13 and the “fractional inhibitory concentration index (FICI)” value (Candida albicans [7]) was 1.13. The MIC80 (Candida albicans [8]) was greater than 64 µg/mL, the MIC80 (Candida albicans [9]) was greater than 64 µg/mL and the MIC80 (Candida albicans [10]) was greater than 64 µg/mL.

With O=[N+]([O-])c1ccc(/C=N/Nc2nc(NCc3ccc(F)cc3)nc(NCc3ccc(F)cc3)n2)cc1 the MIC80 (Candida albicans [5]) was greater than 64 µg/mL, the “fractional inhibitory concentration index (FICI)” value (Candida albicans [6]) was 1.13 and the “fractional inhibitory concentration index (FICI)” value (Candida albicans [7]) was 1.13. It also gave an MIC80 (Candida albicans [8]) greater than 64 µg/mL, an MIC80 (Candida albicans [9]) greater than 64 µg/mL and an MIC80 (Candida albicans [10]) greater than 64 µg/mL.

For Fc1ccc(CNc2nc(NCc3ccc(F)cc3)nc(N/N=C/c3ccccc3Cl)n2)cc1, the MIC80 (Candida albicans [5]) was greater than 64 µg/mL, the “fractional inhibitory concentration index (FICI)” value (Candida albicans [6]) was 1.13 and the “fractional inhibitory concentration index (FICI)” value (Candida albicans [7]) was 1.13. The MIC80 (Candida albicans [8]) was greater than 64 µg/mL, the MIC80 (Candida albicans [9]) was greater than 64 µg/mL and the MIC80 (Candida albicans [10]) was greater than 64 µg/mL.
